PMC11312998, “Molecular Pro-Apoptotic Activities of Flavanone Derivatives in Cyclodextrin Complexes: New Implications for Anticancer Therapy” (International Journal of Molecular Sciences, 2024)

What was measured:
HCC38 [1] = experiment: Mitochondrial potential (ΔΨm), JC-1 method; format: cell-based, human; details: IC50 concentration, 24 h
From the text: 5,5,6,6-Tetrachloro-1,1,3,3-tetraethylbenzimidazolylcarbocyanine iodide (JC-1) is a cationic carbocyanine dye commonly used as a fluorescent probe to detect mitochondrial membrane depolarization. In living cells with an intact mitochondrial membrane, the lipophilic JC-1 penetrates the negatively charged mitochondrial matrix as a monomer. It then forms fluorescent aggregates with red-orange fluorescence (λex = 514 nm, λem = 590 nm). During depolarization of the mitochondrial membrane or in apoptotic cells, the concentration of JC-1 decreases, and the aggregates disintegrate into monomers emitting green fluorescence (λex = 514 nm, λem = 529 nm). The fluorescence ratio of aggregates (λem = 590 nm) and monomers (λem = 529 nm)—590 nm/529 nm—reflects the level of damage to the mitochondrial membrane.
The cells were seeded in black 96-well fluorometric microplates at a density of 10 × 10^3 cells per well. […] After incubation with the compounds, the medium was removed, the cell monolayer in the wells was washed twice with HBSS (140 mM NaCl, 5 mM KCl, 0.8 mM MgCl2, 1.8 mM CaCl2, 1 mM Na2HPO4, 10 mM HEPES and 1% glucose) and 50 μL of JC-1 solution in HBSS was added to each well (final probe concentration 5 μmol/L). Cells were incubated with the probe for 30 min in the dark in an incubator (37 °C). After incubation, the probe was removed and replaced with fresh HBSS buffer. Fluorescence measurements (Perkin-Elmer LS-5B spectrofluorometer, MA, USA) of JC-1 monomers and aggregates were made at the following excitation and emission wavelengths: λex = 514 nm, λem = 529 nm (monomers), λex = 514 nm, λem = 590 nm (aggregates). The results of the tested samples are presented as the percentage fluorescence ratio of JC-1 aggregates and JC-1 monomers relative to the fluorescence ratio of JC-1 aggregates and JC-1 monomers of the control, which was assumed to be 100%.
A positive control was formed of cells pre-incubated with 5 µmol/L carbonyl cyanide m-chlorophenylhydrazone (CCCP), a chemical inhibitor of oxidative phosphorylation that acts by uncoupling the protons flowing along the electrochemical gradient from phosphorylation.

Ishikawa = experiment: Plasma membrane fluidity, TMA-DPH fluorescence anisotropy; format: cell-based, human; details: IC50 concentration, 24 h
Description: (§1) Changes in plasma membrane fluidity were determined by fluorescence spectroscopy and two fluorescent probes located at different depths of the lipid bilayer: TMA-DPH ((1-(4-Trimethylammoniumphenyl)-6-Phenyl-1,3,5-Hexatriene p-Toluene sulfonate, Sigma-Aldrich; St. Louis, MO, USA) and DAUDA (11-[5-(Dimethylamino)-1-naphthalenesulfonylamino] undecanoic acid, Sigma-Aldrich, St. Louis, MO, USA). TMA-DPH is incorporated in the superficial area of the outer monolayer, while DAUDA penetrates into the deeper hydrophobic area of the membrane. The fluorescence of the probes was measured on a Perkin-Elmer spectrofluorometer (Waltham, MA, USA) with an attachment for measuring fluorescence anisotropy with parallel and perpendicular positions of the polarizers.
(§2) Cells were seeded on sterile 35 mm dishes in numbers appropriate for a given cell line. […] After 24 h incubation, the cells were trypsinized and transferred to Eppendorf tubes (0.5 mL of suspension/sample). The cell suspension was centrifuged at 2500 rpm for 5 min at 4 °C. […] Fluorescence measurements were made on a Perkin-Elmer LS-5B spectrofluorometer (MA, USA) in an attachment with a polarizer, reading the fluorescence anisotropy at an excitation wavelength λex = 365 nm and emission wavelength λem = 425 nm (TMA-DPH), as well as excitation wavelength λex = 350 nm and emission wavelength λem = 420 nm (DAUDA).

[2] = tested on: intrinsic coagulation pathway; experiment: Activated partial thromboplastin time (APTT); format: biochemical, human; details: 1–100 µmol/L; values did not exceed the reference range
Description: Basic coagulation parameters were determined using Bio-Ksel reagents (Grudziądz, Poland): APTT reagent, calcium chloride, Bio-Ksel PT plus reagent (tromboplastin and solvent) and thrombin (3.0 UNIH/mL) for TT experiments. The methods were calibrated and the coefficient of variation (PT, APTT, TT experiments) was calculated using a calibrator (Bio-Ksel, Grudziadz, Poland), normal plasma (Bio-Ksel, Grudziądz, Poland) and water for injection (Polpharma, Gdańsk, Poland).
The experiments were conducted in multiplicates, and their results are presented as mean ± standard deviation (SD). Control samples consisting of distilled water and methanol were tested. All methods were validated using Bio-Ksel normal plasma, which was dissolved in water for injection (Polpharma, Gdańsk, Poland). The reference values for each test are as follows: PT: 9.7–13.8 s; INR: 0.9–1.2; APTT: 28.2–42.3 s; TT: 11.0–16.5 s for 3.0 UNIH/mL of thrombin.

Hec-1-A [3] = experiment: Superoxide anion generation, DHE probe; format: cell-based, human; details: IC50 concentration, 24 h
Description: (§3) The level of superoxide anion (O2^•−) was determined by microplate spectrofluorimetry with dihydroethidium (hydroethidine, DHE) (Life Technologies, Carlsbad, CA, USA), which is the most commonly used fluorogenic probe for monitoring the intracellular production of superoxide anion O2^•− [41]. […] Thanks to this shift, DHE can be used as a sensitive probe for cellular ROS. The reaction between superoxide and DHE generates a highly specific red fluorescent product, 2-hydroxyethidium (2-OH-E^+).
(§4) The cells were seeded in black 96-well fluorometric microplates at a density of 10 × 10^3 cells per well. […] After incubation, the medium was removed, the cell monolayer in the wells was washed twice with HBSS (140 mM NaCl, 5 mM KCl, 0.8 mM MgCl2, 1.8 mM CaCl2, 1 mM Na2HPO4, 10 mM HEPES and 1% glucose) and 50 μL of DHE solution in HBSS was added to each well (final probe concentration 5 μmol/L). Cells were incubated with the probe for 30 min in the dark in an incubator (37 °C), and then fluorescence was measured. The measurement was performed at the following excitation and fluorescence emission wavelengths: λex = 498 nm/λem = 582 nm. Fluorescence measurements were made on a Perkin-Elmer LS-5B spectrofluorometer (MA, USA). Fluorescence intensity values for control cells were arbitrarily set as 100%. The results are presented as percentages of control cell values, calculated relative to the fluorescence intensity of the controls (100%): sample fluorescence was calculated as Δf in relation to the controls.

Hec-1-A [4] = experiment: Plasma membrane fluidity, TMA-DPH fluorescence anisotropy; format: cell-based, human; details: IC50 concentration, 24 h
Description: as §1, §2

HCC38 [5] = experiment: Superoxide anion generation, DHE probe; format: cell-based, human; details: IC50 concentration, 24 h
Description: as §3, §4

SMILES	change in mitochondrial potential (in words) (HCC38 [1])	increase in cell membrane fluidity (TMA-DPH) (Ishikawa)	APTT time (in words) [2]	rise of superoxide anion level compared to the control (DHE probe) (Hec-1-A [3])	increase in cell membrane fluidity (TMA-DPH) (Hec-1-A [4])	increase in superoxide anion / ROS relative to control (DHE probe) (HCC38 [5])
O=C1/C(=C/c2ccccc2)C(c2ccccc2)Oc2ccccc21 (stereo not shown) [Compound 5]	strong hyperpolarization	approximately 20%	mild, statistically significant prolongation of APTT time			
COc1cccc(/C=C2/C(=O)c3ccccc3OC2c2ccccc2)c1 (stereo not shown) [Compound 3]			mild, statistically significant prolongation of APTT time	approximately 20%	approximately 20%	
O=C1/C(=C/c2ccccc2)COc2ccccc21 [Compound 1]						approximately 20%
